Measured values from paper PMC10817945, “Design of a novel analogue peptide with potent antibiofilm activities against Staphylococcus aureus based upon a sapecin B-derived peptide” (Scientific Reports, 2024).
Like-named read-outs stand apart in the source and are kept apart here. Non-standard residues stand in square brackets, D forms with d. Residues, ends and D or L forms follow the SMILES beside them.

Experiments:
S. aureus strains [1] = assay type: cell-based, Staphylococcus aureus; details: for inhibition of biofilm formation: strains, 24 h
Procedure: (§1) To investigate the inhibitory effect of KLK and mKLK peptides on bacterial surface attachment and biofilm formation, the bacterial suspension in TSB with a concentration of 10^7 CFU/ml was prepared from overnight culture. An aliquot of 100 μl of the bacterial suspension was added to wells of 96-well plates containing 100 μl of the peptides solution with concentrations of 1×, 1/2× and 1/4× MIC, resulting in the final peptides concentrations of 1/2×, 1/4× and 1/8× MIC. To investigate the inhibitory effect of the peptides on surface attachment the incubation was performed at 37 °C for 2 h and to evaluate their inhibitory activity on biofilm formation the incubation was performed at 37 °C for 24 h. The wells containing only TSB medium were used as negative controls. After incubation, the contents of the wells were removed and washed three times with PBS and the wells were stained with 200 μl of 0.1% crystal violet for 20 min. The plates were washed again and excess dye was removed. A volume of 200 μl of 95% ethanol was added to each well for 20 min and absorbance was measured at 570 nm by a microplate reader.

[2] = test system: one MRSA and reference strain (ATCC25923); experiment: Time-kill kinetics assay
Procedure: The peptide-free control was included for each strain. Following incubation at 37 °C for 0, 0.25, 0.5, 1, 2, 4, 5, and 24 h, each sample was serially diluted, plated onto Mueller–Hinton (MH) agar (Merck, Germany) plates and incubated at 37 °C. The viable plate count method was performed after incubation for 24 h and the counts were expressed as Log CFU/ml[44].

S. aureus strains [3] = experiment: Inhibition of bacterial surface attachment (crystal violet); assay type: cell-based, Staphylococcus aureus
Procedure: as §1

SMILES: CC(C)C[C@@H](NC(=O)[C@H](N)Cc1c[nH]c2ccccc12)C(=O)N[C@H](Cc1c[nH]c2ccccc12)C(=O)N[C@H](C)C(=O)N[C@H](CC(C)C)C(=O)N[C@H](CC(C)C)C(=O)N[C@H](CCCCN)C(=O)N[C@H](CC(C)C)C(=O)N[C@H](CC(C)C)C(=O)N[C@H](CCCCN)C(=O)N[C@H](CC(C)C)C(=O)N[C@H](CCCCN)C(N)=O [mKLK] (H-[dW][dL][dW][dA][dL][dL][dK][dL][dL][dK][dL][dK]-NH2; N-terminus assumed)
- crystal violet absorbance at 570 nm, biofilm formation, Mean±SD (S. aureus strains [1]; ATCC25923, 1/2MIC, control 2.302±0.006): 0.207±0.02
- crystal violet absorbance at 570 nm, biofilm formation, Mean±SD (S. aureus strains [1]; ATCC25923, 1/4MIC, control 2.302±0.006): 0.257±0.05
- crystal violet absorbance at 570 nm, biofilm formation, Mean±SD (S. aureus strains [1]; ATCC25923, 1/8MIC, control 2.302±0.006): 0.678±0.01
- crystal violet absorbance at 570 nm, biofilm formation, Mean±SD (S. aureus strains [1]; MRSA-1, 1/2MIC, control 2.115±0.01): 0.489±0.007
- crystal violet absorbance at 570 nm, biofilm formation, Mean±SD (S. aureus strains [1]; MRSA-1, 1/4MIC, control 2.115±0.01): 0.572±0.01
- crystal violet absorbance at 570 nm, biofilm formation, Mean±SD (S. aureus strains [1]; MRSA-1, 1/8MIC, control 2.115±0.01): 0.936±0.07
- crystal violet absorbance at 570 nm, biofilm formation, Mean±SD (S. aureus strains [1]; MRSA-2, 1/2MIC, control 2.354±0.04): 0.444±0.008
- crystal violet absorbance at 570 nm, biofilm formation, Mean±SD (S. aureus strains [1]; MRSA-2, 1/4MIC, control 2.354±0.04): 0.624±0.03
- crystal violet absorbance at 570 nm, biofilm formation, Mean±SD (S. aureus strains [1]; MRSA-2, 1/8MIC, control 2.354±0.04): 0.923±0.07
- crystal violet absorbance at 570 nm, biofilm formation, Mean±SD (S. aureus strains [1]; MRSA-3, 1/2MIC, control 1.541±0.02): 1.405±0.01
- crystal violet absorbance at 570 nm, biofilm formation, Mean±SD (S. aureus strains [1]; MRSA-3, 1/4MIC, control 1.541±0.02): 0.322±0.02
- crystal violet absorbance at 570 nm, biofilm formation, Mean±SD (S. aureus strains [1]; MRSA-3, 1/8MIC, control 1.541±0.02): 0.519±0.006
- crystal violet absorbance at 570 nm, biofilm formation, Mean±SD (S. aureus strains [1]; MSSA-1, 1/2MIC, control 2.190±0.01): 0.236±0.03
- crystal violet absorbance at 570 nm, biofilm formation, Mean±SD (S. aureus strains [1]; MSSA-1, 1/4MIC, control 2.190±0.01): 0.407±0.007
- crystal violet absorbance at 570 nm, biofilm formation, Mean±SD (S. aureus strains [1]; MSSA-1, 1/8MIC, control 2.190±0.01): 0.622±0.02
- crystal violet absorbance at 570 nm, biofilm formation, Mean±SD (S. aureus strains [1]; MSSA-2, 1/2MIC, control 1.802±0.02): 0.183±0.01
- crystal violet absorbance at 570 nm, biofilm formation, Mean±SD (S. aureus strains [1]; MSSA-2, 1/4MIC, control 1.802±0.02): 0.225±0.01
- crystal violet absorbance at 570 nm, biofilm formation, Mean±SD (S. aureus strains [1]; MSSA-2, 1/8MIC, control 1.802±0.02): 0.558±0.05
- inhibition of biofilm formation (S. aureus strains [1]; 2): 80-91%
- inhibition of biofilm formation (S. aureus strains [1]; 4): 76-89%
- inhibition of biofilm formation (S. aureus strains [1]; 8): 63-73%
- time after which no regrowth was observed ([2]; ATCC 25923, 1 × MIC (4 μg/ml)): 30 min
- reduction in viable cell count ([2]; ATCC 25923, 1 × MIC, during 15 min): ~1 log
- time after which no regrowth was observed ([2]; ATCC 25923, 2 × MIC (8 μg/ml)): 15 min
- time after which no regrowth was observed ([2]; MRSA, 1 × MIC): 240 min
- reduction in viable cell count ([2]; MRSA, 1 × MIC (8 μg/ml), within 2 h): 2 log
- crystal violet absorbance at 570 nm, bacterial attachment, Mean±SD (S. aureus strains [3]; ATCC25923, 1/4MIC, control 2.136±0.01): 1.789±0.01
- crystal violet absorbance at 570 nm, bacterial attachment, Mean±SD (S. aureus strains [3]; ATCC25923, 1/8MIC, control 2.136±0.01): 1.952±0.07
- crystal violet absorbance at 570 nm, bacterial attachment, Mean±SD (S. aureus strains [3]; MRSA-1, 1/2MIC, control 1.861±0.02): 1.361±0.03
- crystal violet absorbance at 570 nm, bacterial attachment, Mean±SD (S. aureus strains [3]; MRSA-1, 1/4MIC, control 1.861±0.02): 1.599±0.08
- crystal violet absorbance at 570 nm, bacterial attachment, Mean±SD (S. aureus strains [3]; MRSA-1, 1/8MIC, control 1.861±0.02): 1.723±0.02
- crystal violet absorbance at 570 nm, bacterial attachment, Mean±SD (S. aureus strains [3]; MRSA-2, 1/2MIC, control 2.311±0.005): 1.496±0.01
- crystal violet absorbance at 570 nm, bacterial attachment, Mean±SD (S. aureus strains [3]; MRSA-2, 1/4MIC, control 2.311±0.005): 1.811±0.19
- crystal violet absorbance at 570 nm, bacterial attachment, Mean±SD (S. aureus strains [3]; MRSA-2, 1/8MIC, control 2.311±0.005): 1.906±0.13
- crystal violet absorbance at 570 nm, bacterial attachment, Mean±SD (S. aureus strains [3]; MRSA-3, 1/2MIC, control 1.491±0.06): 0.944±0.07
- crystal violet absorbance at 570 nm, bacterial attachment, Mean±SD (S. aureus strains [3]; MRSA-3, 1/4MIC, control 1.491±0.06): 1.078±0.07
- crystal violet absorbance at 570 nm, bacterial attachment, Mean±SD (S. aureus strains [3]; MRSA-3, 1/8MIC, control 1.491±0.06): 1.119±0.12
- crystal violet absorbance at 570 nm, bacterial attachment, Mean±SD (S. aureus strains [3]; MSSA-1, 1/2MIC, control 2.107±0.08): 1.229±0.07
- crystal violet absorbance at 570 nm, bacterial attachment, Mean±SD (S. aureus strains [3]; MSSA-1, 1/4MIC, control 2.107±0.08): 1.419±0.01
- crystal violet absorbance at 570 nm, bacterial attachment, Mean±SD (S. aureus strains [3]; MSSA-1, 1/8MIC, control 2.107±0.08): 1.592±0.36
- crystal violet absorbance at 570 nm, bacterial attachment, Mean±SD (S. aureus strains [3]; MSSA-2, 1/2MIC, control 2.061±0.01): 1.199±0.09
